Assays:
BCL6 [1] = molecular target: T1, BCL6 (Homo sapiens (Human), UniProt P41182); assay: BCL6 TR-FRET assay (BCL6-Avitag-Biotin / BCoR-Cy5 peptide); assay type: binding; details: class symbols A-D; read-out: IC50 (nM)***
Method: Protein Synthesis. BCL6 protein was expressed by transforming Invitrogen One Shot cells with GS63525 pET24a-His-SUMO-TEV-BCLm-Avitag plasmid following manufacturer's instructions. In addition, biotin at a final concentration of 50 μM, and IPTG at a final concentration of 1 mM was added to the culture and incubated at room temperature shaking overnight.
Assay buffer A: 50 mM HEPES pH 7.5, 125 mM NaCl, 0.01% TritonX.
Assay buffer B (made fresh): buffer A+1 mM Glutathione (or 0.5 mM DTT).
Assay buffer C (made fresh): buffer B+0.03% BSA.
Black Proxy plates, 96 well.
15 μl final reaction volumes (BCoR-Cy5 100 nM, SA-Eu 2 nM, BCL6-avitag 2 nM).
[…] BCL6-Avitag-Biotin stock: made fresh by adding 2 μl of BCL6-Avitag-Biotin to 31.5 ml Buffer C.
1 mM BCoR-Cy5 peptide (LifeTein) stock in Dimethylformamide (DMF).
300 nM BCoR-Cy5 working stock: made fresh by adding 4.5 μl of the 1 mM BCoR-Cy5 peptide stock to 15 ml Buffer B.
10 μM Eu-Streptavidin (Lance Eu-W1024 Streptavidin, PerkinElmer) stock solution.
6 nM Eu-Streptavidin working stock: made fresh by adding 9 μl Eu-Streptavidin stock solution to 15 ml Buffer A.
Compounds were diluted to 10 mM. Twenty microliters of DMSO was aliquoted to each well of the microtiter plates. From the 10 mM compound stock, 8.7 ul was aliquoted to the 20 ul DMSO and 3-fold serial dilutions (12 pt 3-0.01 uM tritration plate, 96 well, 100% DMSO) performed. Five ul from the titration plate wells was aliquoted to 45 ul Buff C (Intermediate dilution plates, 10% DMSO).
Spot 1.5 μl compound titrations to 384-well plates in duplicate, and spot 3.5 μl [8.5 nM] BCL6-bio protein to each well. The plate was mix briefly, centrifuged, and incubated for 30 minutes at room temperature.
Mix 14 mls of BCoR-Cy5 [300 nM] and 14 mls [6 nM] Eu-Streptavidin. Spot 10 μl BCoR-Cy5/SA-Eu (1:1) mix to each well. The plates were incubated for 2 hours and then read on an Envision plate reader.

BCL6 [2] = molecular target: T1, BCL6; assay: Immunofluorescence high content imaging of BCL6 degradation in T47D cells; assay type: cell-based; details: for Dmax: T47D, maximum, class symbols A-C; for DC50: class symbols A-D, read-out: EC50 (nM)*
Procedure, shortened: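 BCL6 loss was quantified by high-content imaging (10×, 4 fields/well) after PFA fixation and anti-BCL6/Alexa-488 staining with Hoechst nuclear and CellMask counterstains. Compounds were applied for 3 days to T47D breast cancer cells in RPMI-10% FBS, 11 points, 3-fold steps, top 0.1 or 1 μM.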

Compound | IC50 (BCL6 [1]) [nM] | Dmax (BCL6 [2]) [%] | DC50 (BCL6 [2]) [nM]
CNC(=O)COc1cc2cc(Nc3nc(N4CCCC(COc5ccc(C6CCN(CCC(O)c7ccc8c(c7)CN(C7CCC(=O)NC7=O)C8=O)CC6)cc5)C4)ncc3Cl)ccc2n(C)c1=O (stereo not shown) [compound 127, 2-((6-((5-chloro-2-(3-((4-(1-(3-(2-(2,6-dioxopiperidin-3-yl)-1-oxoisoindolin-5-yl)-3-hydroxypropyl)piperidin-4-yl)phenoxy)methyl)piperidin-1-yl)pyrimidin-4-yl)amino)-1-methyl-2-oxo-1,2-dihydroquinolin-3-yl)oxy)-N-methylacetamide] | < 10 | < 50 | 10 to 50
CC(=O)COc1cc2cc(Nc3nc(N4CCC(OCCN5CCN(c6ccc7c(c6)CN(C6CCC(=O)NC6=O)C7=O)CC5)CC4)ncc3Cl)ccc2n(C)c1=O (stereo not shown) [compound 128, 3-(5-(4-(2-((1-(5-chloro-4-((1-methyl-2-oxo-3-(2-oxopropoxy)-1,2-dihydroquinolin-6-yl)amino)pyrimidin-2-yl)piperidin-4-yl)oxy)ethyl)piperazin-1-yl)-1-oxoisoindolin-2-yl)piperidine-2,6-dione] | < 10 | < 50 | < 10
CC(=O)COc1cc2cc(Nc3nc(N4CCN(CCCN5CCN(c6ccc7c(c6)CN(C6CCC(=O)NC6=O)C7=O)CC5)CC4)ncc3Cl)ccc2n(C)c1=O (stereo not shown) [compound 137, 3-(5-(4-(3-(4-(5-chloro-4-((1-methyl-2-oxo-3-(2-oxopropoxy)-1,2-dihydroquinolin-6-yl)amino)pyrimidin-2-yl)piperazin-1-yl)propyl)piperazin-1-yl)-1-oxoisoindolin-2-yl)piperidine-2,6-dione] | < 10 | < 50 | 10 to 50
CNC(=O)COc1cc2cc(Nc3nc(N4CCC(N(C)C5CCN(CC6CCN(c7ccc(C#Cc8ccc9c(c8)CN(C8CCC(=O)NC8=O)C9=O)cc7)CC6)CC5)CC4)ncc3Cl)ccc2n(C)c1=O (stereo not shown) [compound 138, 2-((6-((5-chloro-2-(4-((1-((1-(4-((2-(2,6-dioxopiperidin-3-yl)-1-oxoisoindolin-5-yl)ethynyl)phenyl)piperidin-4-yl)methyl)piperidin-4-yl) (methyl)amino)piperidin-1-yl)pyrimidin-4-yl)amino)-1-methyl-2-oxo-1,2-dihydroquinolin-3-yl)oxy)-N-methylacetamide] | < 10 | < 50 | 10 to 50
CC(=O)COc1cc2cc(Nc3nc(N4CCN(CC5CCN(c6ccc7c(c6)C(=O)N(C6CCC(=O)NC6=O)C7=O)CC5)CC4)ncc3Cl)ccc2n(C)c1=O (stereo not shown) [compound 148, 5-(4-((4-(5-chloro-4-((1-methyl-2-oxo-3-(2-oxopropoxy)-1,2-dihydroquinolin-6-yl)amino)pyrimidin-2-yl)piperazin-1-yl)methyl)piperidin-1-yl)-2-(2,6-dioxopiperidin-3-yl)isoindoline-1,3-dione] | < 10 | 50 to 70 | 10 to 50
Cn1c(=O)n(CCC(C)(C)O)c2cc(Nc3nc(N4CCC(CN5CCN(c6ccc7c(c6)C(=O)N(C6CCC(=O)NC6=O)C7=O)CC5)CC4)ncc3Cl)ccc21 (stereo not shown) [compound 149, 5-(4-((1-(5-chloro-4-((3-(3-hydroxy-3-methylbutyl)-1-methyl-2-oxo-2,3-dihydro-1H-benzo[d]imidazol-5-yl)amino)pyrimidin-2-yl)piperidin-4-yl)methyl)piperazin-1-yl)-2-(2,6-dioxopiperidin-3-yl)isoindoline-1,3-dione] | ≥ 100 |  | > 100
Cn1c(=O)ccc2cc(Nc3nc(N4CCC(CN5CCN(c6ccc7c(c6)C(=O)N(C6CCC(=O)NC6=O)C7=O)CC5)CC4)ncc3Cl)ccc21 (stereo not shown) [compound 150, 5-(4-((1-(5-chloro-4-((1-methyl-2-oxo-1,2-dihydroquinolin-6-yl)amino)pyrimidin-2-yl)piperidin-4-yl)methyl)piperazin-1-yl)-2-(2,6-dioxopiperidin-3-yl)isoindoline-1,3-dione] | ≥ 100 |  | > 100

From US12310975B2, “Modulators of BCL6 proteolysis and associated methods of use” (Arvinas Operations, Inc., priority 2019, dated 2025)
